“Also recorded” adds a separate entry of the source. Read-outs that look alike come from different tables or passages of the source.

In assay [1] the test system is Hh pathway. Briefly: Shh-LIGHT2 assay for Hh pathway activation (Gli-dependent firefly luciferase). Type of assay: cell-based. The method, then:
Shh-LIGHT2 assay for Hh pathway activation and library screening conditions. h-N-conditioned medium was prepared as previously described. […] For 96-well plate assays, Shh-LIGHT2 cells were seeded into each plate (10,000 cells/well) and cultured to confluency. The Shh-LIGHT2 cells were then grown in DMEM containing 0.5% CS, 100 U/mL penicillin, 0.1 mg/mL streptomycin, either 5% Shh-N-conditioned medium or 500 nM SAG, and various concentrations of the HPIs. After the cells were cultured for another 30 h, the resulting firefly and Renilla luciferase activities were measured using a Dual Luciferase Reporter kit (Promega) and a Veritas microplate luminometer (Turner Biosystems).
When the cells reached >90% confluency, they were removed by trypsinization and diluted to a final volume of 50 mL medium. This cell suspension was then plated into clear-bottom, white-walled 384-well plates using a Titertek Multidrop dispenser (50 μL/well) and the cells were cultured until they reached confluency (3-4 days). […] The plates were then placed into an automated Staccato system (Caliper Life Sciences), which includes an automated CO2 incubator. An automated protocol was then run, in 3 which a Multidrop dispenser added 10 μL of a SAG solution in 0.5% CS medium (final SAG concentration of 500 nM) to columns 1-22 and 100 nL of each compound solution was added to the plates using a V&P Scientific pin tool, resulting in a final compound screening concentration of 10 μM. The SAG-free wells were used as negative controls. After 28-32 h, the assay medium was manually removed and the plates were frozen. To assay the firefly luciferase activities, the plates were thawed and placed into a Twister II stacker in the Staccato system. Bright-Glo luciferase substrate (Promega) was added by the Multidrop dispenser and the plates were analyzed on an Analyst GT microplate reader (2 min in the dark, 0.2 sec integration/well; Molecular Devices). Hits were defined as compounds that reduce the firefly luciferase signal by at least 50% compared to inhibitor-free controls. Primary hits were then re-tested in duplicate in an eight-point, 1:1 serially diluted doseresponse curve with a starting concentration of 20 μM. In these experiments, the median inhibitory concentration (IC50) for both firefly and Renilla luciferase were determined using a Dual-Glo kit (Promega).

Assay [2] concerns the target T1, Gli1 (Mus musculus, UniProt P47806).
T1 construct: expressed in transfected cells; host or cells: NIH-3T3
T1 sequence (P47806 1-1111): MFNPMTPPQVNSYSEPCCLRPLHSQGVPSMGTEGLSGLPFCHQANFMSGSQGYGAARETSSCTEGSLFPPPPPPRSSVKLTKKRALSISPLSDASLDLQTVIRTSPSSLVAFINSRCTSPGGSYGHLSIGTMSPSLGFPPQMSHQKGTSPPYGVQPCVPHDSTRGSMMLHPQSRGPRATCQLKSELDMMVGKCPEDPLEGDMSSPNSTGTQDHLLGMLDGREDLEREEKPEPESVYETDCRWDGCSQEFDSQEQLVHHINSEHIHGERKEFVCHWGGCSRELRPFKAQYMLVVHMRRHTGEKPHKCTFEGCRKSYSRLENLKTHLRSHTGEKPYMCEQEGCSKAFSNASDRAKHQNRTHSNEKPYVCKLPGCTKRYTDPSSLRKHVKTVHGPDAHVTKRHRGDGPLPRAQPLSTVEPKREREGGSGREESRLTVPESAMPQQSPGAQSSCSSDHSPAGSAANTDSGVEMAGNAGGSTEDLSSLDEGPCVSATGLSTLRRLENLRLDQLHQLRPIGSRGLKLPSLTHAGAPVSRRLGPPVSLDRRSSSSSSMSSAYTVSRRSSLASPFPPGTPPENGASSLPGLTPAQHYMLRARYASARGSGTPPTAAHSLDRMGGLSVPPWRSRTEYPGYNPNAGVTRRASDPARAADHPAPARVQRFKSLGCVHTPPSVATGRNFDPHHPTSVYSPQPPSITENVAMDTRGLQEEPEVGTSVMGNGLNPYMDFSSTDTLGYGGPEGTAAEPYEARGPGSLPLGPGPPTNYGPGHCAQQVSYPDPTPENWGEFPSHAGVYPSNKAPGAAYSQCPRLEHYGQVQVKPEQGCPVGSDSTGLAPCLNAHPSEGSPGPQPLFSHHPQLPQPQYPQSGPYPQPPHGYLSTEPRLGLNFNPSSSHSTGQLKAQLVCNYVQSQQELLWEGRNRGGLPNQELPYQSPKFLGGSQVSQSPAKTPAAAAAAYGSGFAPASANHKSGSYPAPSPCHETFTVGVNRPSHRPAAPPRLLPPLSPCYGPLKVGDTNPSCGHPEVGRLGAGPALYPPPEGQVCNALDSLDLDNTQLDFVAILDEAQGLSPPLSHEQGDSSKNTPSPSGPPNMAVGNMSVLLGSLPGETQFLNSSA
Briefly: Hh pathway activation mediated by overexpression of Gli1. Type of assay: cell-based. As for the experimental part:
Hh pathway activation mediated by the overexpression of Gli, Gli2, Gli2αPKA, or Gli2αGSK. […] The cells were co-transfected the following day with 220 ng/well pcDNA-derived Gli1, Gli2, or Gli2 phosphosite mutant expression vectors and 80 ng/well of a 1:15 mixture of phRLTK (Promega) and 8XGIiBS-FL. After transfection, cells were grown to confluence (approximately 48 h). The cell were then incubated for an additional 28-32 h in DMEM containing 0.5% CS, 100 U/mL penicillin, 0.1 mg/mL streptomycin, and either DMSO, 50 μM forskolin, 50 μM LY294002, or various concentrations of the HPIs. Firefly and Renilla luciferase activities were measured using a dual luciferase kit and a Veritas microplate luminometer.

The target of assay [3] is Smo (Mus musculus, UniProt P56726). Briefly: BODIPY-cyclopamine/Smo binding assay. Also noted: expressed in transfected cells; host or cells: HEK-293T; species or system murine. The following applies: 5 nM BODIPY-cyclopamine, Smo-overexpressing HEK-293T cells, HPIs 20 μM. The method, then:
BODIPY-cyclopamine/Smo binding assay. Smo-binding assays were conducted with BODIPY-cyclopamine and Smooverexpressing and HEK-293T cells as previously described, using a CMV-promoter based SV40 origin-containing expression construct for Smo-Myc3 (murine Smo containing three consecutive Myc epitopes at the C-terminus). […] The cells were cultured until they reached 55 to 65% confluency (14-18 h), after which they were transfected with the Smo-Myc3 expression construct and FuGENE (Roche) according to the manufacturer's protocols. 24 h after transfection, the cells were washed with phosphate-buffered saline (PBS) and cultured in DMEM containing 0.5% FBS, 5 nM BODIPY-cyclopamine, and individual HPIs (20 μM). After 30 min, 10 μM Hoescht 33342 was added to each well, and the HPIs were incubated with the cells for an additional 60 min. The cells were then washed two times with PBS buffer, mounted in Prolong Gold (Invitrogen) and immediately imaged using a DM4500B compound microscope (Leica).

Chain of Smo (P56726 33-793): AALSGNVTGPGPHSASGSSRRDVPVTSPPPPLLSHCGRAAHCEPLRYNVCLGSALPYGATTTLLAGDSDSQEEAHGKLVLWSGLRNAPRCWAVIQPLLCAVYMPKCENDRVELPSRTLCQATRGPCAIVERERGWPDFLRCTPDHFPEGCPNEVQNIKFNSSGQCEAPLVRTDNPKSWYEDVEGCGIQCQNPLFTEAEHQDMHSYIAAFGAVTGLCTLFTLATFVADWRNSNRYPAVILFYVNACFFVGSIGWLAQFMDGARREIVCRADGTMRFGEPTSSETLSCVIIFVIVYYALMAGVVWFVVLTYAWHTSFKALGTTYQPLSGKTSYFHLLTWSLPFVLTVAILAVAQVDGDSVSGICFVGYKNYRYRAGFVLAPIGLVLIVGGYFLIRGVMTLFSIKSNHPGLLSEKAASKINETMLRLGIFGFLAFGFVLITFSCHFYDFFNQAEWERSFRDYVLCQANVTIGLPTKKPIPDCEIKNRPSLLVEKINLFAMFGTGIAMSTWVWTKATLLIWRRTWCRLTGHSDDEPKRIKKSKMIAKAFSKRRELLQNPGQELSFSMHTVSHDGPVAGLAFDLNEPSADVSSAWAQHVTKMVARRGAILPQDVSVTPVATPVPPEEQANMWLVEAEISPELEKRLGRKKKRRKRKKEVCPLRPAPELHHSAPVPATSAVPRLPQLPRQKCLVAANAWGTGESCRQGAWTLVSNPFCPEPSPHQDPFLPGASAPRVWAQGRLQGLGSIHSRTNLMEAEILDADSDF

On to `N#CC(C(=O)c1ccc(Cl)cc1Cl)=C1NC(=O)c2ccccc2N1` [Compound 18], for which the IC50 in assay [1] (SAG-stimulated Shh-LIGHT2 cells, firefly luciferase, read-out: median inhibitory concentrations (IC50s) in the screen) was under 10 µM; in assay [1] (Shh Light2, stimulated with 500 nM SAG, read-out: IC50 (uM) SAG/Shh-LIGHT2 cells) it was 8 µM; in assay [1] (Shh Light2, stimulated with Shh-N-conditioned medium, read-out: IC50 (uM) Shh/Shh-LIGHT2 cells) it was 7.5 µM; in assay [2] (NIH-3T3 cells overexpressing Gli1, read-out: IC50 (uM) Gli1 Transfected or Infection), over 10 µM. In assay [2] (NIH-3T3 cells, Gli-dependent firefly luciferase, listed as HPI-4), the “Inhibition of Hh pathway activity induced by Gli1 overexpression” value is “no significant activity; also recorded: inactive”. Besides, in assay [3], the BODIPY-cyclopamine competition entry is listed as “No”.

The values above are taken from US8119640B2, “Hedgehog pathway antagonists methods of use” (The Board of Trustees of the Leland Stanford Junior …, priority 2008, dated 2012).
